In patent US10829500B2, “Pyridyl-triazabicycles” (Hoffmann-La Roche Inc., priority 2014, dated 2020):

The compounds below were run against BACE1 (Homo sapiens (Human), UniProt P56817) (assay: Cellular Aβ-lowering assay (Abeta 40 AlphaLISA) in HEK293 APP cells). Conditions: Aβ 40 in culture supernatant after 18-20 hrs incubation.
Type: cell-based
Protocol: Cellular Aβ-Lowering Assay:
The Abeta 40 AlphaLISA Assay can be used. The HEK293 APP cells were seeded in 96 well Microtiter plates in cell culture medium (Iscove's, plus 10% (v/v) fetal bovine serum, penicillin/streptomycin) to about 80% confluency and the compounds were added at a 3× concentration in ⅓ volume of culture medium (final DMSO concentration was kept at 1% v/v). After 18-20 hrs incubation at 37° C. and 5% CO2 in a humidified incubator, the culture supernatants were harvested for the determination of Aβ 40 concentrations using Perkin-Elmer Human Amyloid beta 1-40 (high specificity) Kit (Cat # AL275C).
In a Perkin-Elmer White Optiplate-384 (Cat #6007290), 2 ul culture supernatants were combined with 2 μl of a 10× AlphaLISA Anti-hAβAcceptor beads+Biotinylated Antibody Anti-Aβ 1-40 Mix (50 μg/mL/5 nM). After 1 hour room temperature incubation, 16 μl of a 1.25× preparation of Streptavidin (SA) Donor beads (25 μg/mL) were added and incubated for 30 minutes in the Dark. Light Emission at 615 nm was then recorded using EnVision-Alpha Reader. Levels of A β 40 in the culture supernatants were calculated as percentage of maximum signal (cells treated with 1% DMSO without inhibitor). The IC50 values were calculated using the Excel XLfit software.

Sequence of BACE1 (P56817 46-501): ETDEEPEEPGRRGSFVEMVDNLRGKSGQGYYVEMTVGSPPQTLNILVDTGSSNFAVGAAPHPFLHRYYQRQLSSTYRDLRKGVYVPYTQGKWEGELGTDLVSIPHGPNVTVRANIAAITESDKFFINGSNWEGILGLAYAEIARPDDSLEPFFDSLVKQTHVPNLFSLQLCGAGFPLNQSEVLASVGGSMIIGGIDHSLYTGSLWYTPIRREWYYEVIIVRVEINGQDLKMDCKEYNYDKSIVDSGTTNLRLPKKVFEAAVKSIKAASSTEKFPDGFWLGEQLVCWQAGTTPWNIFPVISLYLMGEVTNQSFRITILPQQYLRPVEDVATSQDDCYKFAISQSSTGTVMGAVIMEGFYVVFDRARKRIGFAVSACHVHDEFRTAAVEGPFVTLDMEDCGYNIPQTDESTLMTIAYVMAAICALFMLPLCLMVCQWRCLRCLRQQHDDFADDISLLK

| IC50 [nM] | Structure (SMILES) |
| --- | --- |
| 86 | C[C@@]1(c2nc(NC(=O)c3ccc(C#N)cn3)ccc2F)CS2(=O)=NCCCCN2C(N)=N1 (stereo in doubt) [Example 1, 5-Cyano-pyridine-2-carboxylic acid [6-((3R,4aR)-1-amino-3-methyl-4a-oxo-3,4,6,7,8,9-hexahydro-4aλ^6-thia-2,5,9a-triaza-benzocyclohepten-3-yl)-5-fluoro-pyridin-2-yl]-amide] |
| 49 | C[C@@]1(c2nc(NC(=O)c3ccc(C#N)cn3)ccc2F)CS2(=O)=NCCCCN2C(N)=N1 (stereo in doubt) [Example 2, 5-Cyano-pyridine-2-carboxylic acid [6-((3R,4aS)-1-amino-3-methyl-4a-oxo-3,4,6,7,8,9-hexahydro-4aλ^6-thia-2,5,9a-triaza-benzocyclohepten-3-yl)-5-fluoro-pyridin-2-yl]-amide] |
| 36 | Cc1cc(C#N)cnc1C(=O)Nc1ccc(F)c([C@]2(C)C[S@@]3(=O)=NCCCCN3C(N)=N2)n1 [Example 3] |
| 96 | N#Cc1ccc(C(=O)Nc2ccc(F)c([C@]3(CF)C[S@]4(=O)=NCCCCN4C(N)=N3)n2)nc1 [Example 4, N-[6-[(1S,10S)-8-Amino-10-(fluoromethyl)-1-oxo-1λ^6-thia-2,7,9-triazabicyclo[5.4.0]undeca-1,8-dien-10-yl]-5-fluoropyridin-2-yl]-5-cyanopyridine-2-carboxamide] |
| 28 | N#Cc1ccc(C(=O)Nc2ccc(F)c([C@]3(CF)C[S@@]4(=O)=NCCCCN4C(N)=N3)n2)nc1 [Example 5, N-[6[(1R,10S)-8-Amino-10-(fluoromethyl)-1-oxo-1λ^6-thia-2,7,9-triazabicyclo[5.4.0]undeca-1,8-dien-10-yl]-5-fluoropyridin-2-yl]-5-cyanopyridine-2-carboxamide] |
